The results in this text go back to patent US8592421B2, “Cyclic bioisosters of purine system derivatives and a pharmaceutical composition based thereon” (priority 2003, dated 2013).

Data set [1] in a line: Morphine abstinence model: indicator enzymes ALT, AST, γ-GTP in blood plasma. The conditions noted are these: 20.0 mg/kg intramuscularly three times a day; for γ-GTP in blood plasma, Ci: control 6.261 ± 1.80; for ALT in blood plasma, Ci: control 106.76 ± 111.35; for AST in blood plasma, Ci: control 179.881 ± 11.94. As to the method: The experiments were carried out on rats in series of 7 animals on each compound according to the invention. Non-morphinized animal with not administered with compounds according to the invention were used as a control group. […] Then the rats were decapitated, the blood from somnolent arteries was collected in test tubes with solution EDTA as an anticoagulant, centrifuged at 1500 g for 15 minutes at 4° C.
To estimate possible hepatoprotective action of the compounds according to the invention under conditions of development of an oxidizing stress in the liver cells, effect of these compounds on the most important biochemical blood indexes, in particular, on the content in blood plasma of indicator enzyme of aspartateaminotransferase (AST), alanineaminotransferase (ALT), γ-glutamiletranspeptidase (γ-GTP) was investigated. The content of enzymes was estimated by their catalyzing activity in blood plasma.
The activity of AST, ALT and γ-GTP was determined by means of diagnostic sets DiaSys, Germany.

Data set [2] relates to synthase of nitrogen oxide (NOC). Briefly: Morphine abstinence model: activity of synthase of nitrogen oxide (NOC), radiometric [3H]L-citrulline method. The data set is classed as in vivo, rats Wistar. The note with it: 20.0 mg/kg intramuscularly; for Activity of NOC: Mesencephalon: control 2.18 ± 0.09; for Activity of NOC: Hypothalamus: control 5.37 ± 0.20.

On to `O=c1[nH][nH]c(=O)c2ncccc12.[Li]` [Compound 6, lithium salt of pyrido[2,3-d]-6H-pyridazine-5,8-dione], for which, in data set [1] (Control + compound), the “γ-GTP in blood plasma, Ci” value is given as 8.27 ± 2.12 mE/l; the “ALT in blood plasma, Ci” value was determined as 114.5 ± 1.13 mE/l; the “AST in blood plasma, Ci” value is 176.18 ± 3.26 mE/l. Besides, in data set [1] (control + Morphine + Compound), the “γ-GTP in blood plasma, Ci” value is given as 12.52 ± 2.02 mE/l; the “ALT in blood plasma, Ci” value is 122.44 ± 2.01 mE/l; the “AST in blood plasma, Ci” value amounted to 198.34 ± 9.32 mE/l. In data set [2] (Control + Compound), the “Activity of NOC: Mesencephalon” value is recorded as 2.84 ± 0.31 pmol/min/mg of protein and the “Activity of NOC: Hypothalamus” value is given as 5.93 ± 0.27 pmol/min/mg of protein. For the same molecule, in data set [2] (Control + Morphine + compound), the “Activity of NOC: Mesencephalon” value is given as 1.99 ± 0.31 pmol/min/mg of protein and the “Activity of NOC: Hypothalamus” value is given as 5.24 ± 0.24 pmol/min/mg of protein.
Regarding `O=c1[nH][nH]c(=O)c2nccnc12.[Li]` [Compound 25, lithium salt of pyrazine[2,3-d]-6H-pyridazine-5,8-dione], in data set [1] (Control + compound), the “γ-GTP in blood plasma, Ci” value is listed as 7.57 ± 1.93 mE/l; the “ALT in blood plasma, Ci” value worked out at 115.27 ± 1.09 mE/l; the “AST in blood plasma, Ci” value was found to be 177.34 ± 6.13 mE/l. In data set [1] (control + Morphine + Compound), the “γ-GTP in blood plasma, Ci” value was 11.37 ± 1.54 mE/l; the “ALT in blood plasma, Ci” value came to 121.96 ± 3.4 mE/l; the “AST in blood plasma, Ci” value turned out to be 196.46 ± 15.34 mE/l. In addition, in data set [2] (Control + Compound), the “Activity of NOC: Mesencephalon” value is recorded as 2.65 ± 0.43 pmol/min/mg of protein and the “Activity of NOC: Hypothalamus” value is given as 5.88 ± 0.27 pmol/min/mg of protein. Further, in data set [2] (Control + Morphine + compound), the “Activity of NOC: Mesencephalon” value is listed as 1.97 ± 0.27 pmol/min/mg of protein and the “Activity of NOC: Hypothalamus” value is on record as 5.23 ± 0.27 pmol/min/mg of protein.
